In patent publication US20250215012A1, “IKZF2 DEGRADERS AND USES THEREOF” (REGENTS OF THE UNIVERSITY OF MICHIGAN, priority 2022, published 2025):

Biological target: IKZF2 (Homo sapiens (Human), UniProt Q96SW2+Q9UKS7)
Assay: IKZF2 HiBiT Assay (Jurkat-IKZF2-HiBiT cell line)
Format: cell-based
Conditions: Jurkat-IKZF2-HiBiT cells, 24 hours; for DC50: read-out: HiBit assay degradation analysis DC50; for Dmax: read-out: HiBit assay degradation analysis Dmax
How it was run: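 IKZF2 degradation was assessed as HiBiT luminescence in Jurkat-IKZF2-HiBiT cells, using lytic detection after 24 h of compound treatment at 37 °C, 5% CO2.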

IKZF2, sequence (Q9UKS7 whole entry): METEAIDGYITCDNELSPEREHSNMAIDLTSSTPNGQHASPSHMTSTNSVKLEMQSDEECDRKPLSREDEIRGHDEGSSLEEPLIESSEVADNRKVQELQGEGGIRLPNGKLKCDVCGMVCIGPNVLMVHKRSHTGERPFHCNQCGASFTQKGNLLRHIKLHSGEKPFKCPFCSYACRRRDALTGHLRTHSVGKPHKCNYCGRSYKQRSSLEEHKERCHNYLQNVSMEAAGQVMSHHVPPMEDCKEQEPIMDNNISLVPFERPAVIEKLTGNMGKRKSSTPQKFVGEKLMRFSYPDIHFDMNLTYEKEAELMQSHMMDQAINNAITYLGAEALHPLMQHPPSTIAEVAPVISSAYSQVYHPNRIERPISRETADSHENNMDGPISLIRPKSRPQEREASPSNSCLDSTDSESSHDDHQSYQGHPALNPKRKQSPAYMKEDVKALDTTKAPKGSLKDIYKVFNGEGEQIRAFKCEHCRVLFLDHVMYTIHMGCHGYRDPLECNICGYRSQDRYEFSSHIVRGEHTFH
IKZF2, sequence (Q96SW2 whole entry): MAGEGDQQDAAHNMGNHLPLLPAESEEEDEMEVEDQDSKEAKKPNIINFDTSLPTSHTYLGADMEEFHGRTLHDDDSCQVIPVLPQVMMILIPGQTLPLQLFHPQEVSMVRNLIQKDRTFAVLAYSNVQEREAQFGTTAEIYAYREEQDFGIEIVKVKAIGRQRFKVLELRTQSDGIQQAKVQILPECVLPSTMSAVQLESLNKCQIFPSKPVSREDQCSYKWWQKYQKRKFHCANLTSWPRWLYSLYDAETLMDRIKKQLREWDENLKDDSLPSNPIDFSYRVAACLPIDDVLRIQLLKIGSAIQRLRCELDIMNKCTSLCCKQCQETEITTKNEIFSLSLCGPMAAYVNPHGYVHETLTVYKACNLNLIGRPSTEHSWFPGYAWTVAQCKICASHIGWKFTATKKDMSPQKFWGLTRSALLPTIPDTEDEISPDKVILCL
IKZF2, sequence (Q16531 whole entry partner): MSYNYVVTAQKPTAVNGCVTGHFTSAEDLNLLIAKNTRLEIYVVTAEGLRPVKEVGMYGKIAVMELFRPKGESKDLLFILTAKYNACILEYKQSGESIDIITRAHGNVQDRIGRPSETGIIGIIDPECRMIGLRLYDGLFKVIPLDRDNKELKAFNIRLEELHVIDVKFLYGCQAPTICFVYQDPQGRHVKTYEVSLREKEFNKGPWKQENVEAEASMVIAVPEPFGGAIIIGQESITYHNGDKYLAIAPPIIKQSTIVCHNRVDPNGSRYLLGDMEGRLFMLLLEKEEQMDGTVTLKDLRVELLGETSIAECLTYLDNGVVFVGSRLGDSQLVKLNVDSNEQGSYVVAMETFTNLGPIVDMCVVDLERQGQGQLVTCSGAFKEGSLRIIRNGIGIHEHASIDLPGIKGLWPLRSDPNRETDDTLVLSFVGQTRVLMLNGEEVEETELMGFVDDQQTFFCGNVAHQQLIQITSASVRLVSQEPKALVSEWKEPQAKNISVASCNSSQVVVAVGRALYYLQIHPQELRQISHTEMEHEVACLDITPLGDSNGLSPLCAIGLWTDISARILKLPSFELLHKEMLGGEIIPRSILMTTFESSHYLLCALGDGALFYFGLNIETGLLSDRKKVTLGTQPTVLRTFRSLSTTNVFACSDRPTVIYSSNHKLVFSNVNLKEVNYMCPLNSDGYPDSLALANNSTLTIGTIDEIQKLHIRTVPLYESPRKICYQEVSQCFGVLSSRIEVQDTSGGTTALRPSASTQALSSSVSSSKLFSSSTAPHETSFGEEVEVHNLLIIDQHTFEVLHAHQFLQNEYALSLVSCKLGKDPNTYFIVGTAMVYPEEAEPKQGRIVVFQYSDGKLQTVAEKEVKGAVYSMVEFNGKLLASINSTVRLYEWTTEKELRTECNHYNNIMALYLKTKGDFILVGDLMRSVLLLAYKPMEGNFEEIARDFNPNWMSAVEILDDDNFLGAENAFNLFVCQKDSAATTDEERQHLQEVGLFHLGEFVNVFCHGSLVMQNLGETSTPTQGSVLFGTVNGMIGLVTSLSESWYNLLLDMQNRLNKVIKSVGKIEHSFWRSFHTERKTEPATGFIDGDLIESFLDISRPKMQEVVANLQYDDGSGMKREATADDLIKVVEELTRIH

Row | SMILES | DC50 | Dmax
1 | O=C1CCC(N2Cc3c(ccc4c3OCC43CCN(Cc4cccc(-n5cccn5)c4)CC3)C2=O)C(=O)N1 (stereo not shown) [Compound A107, 3-(1′-(3-(1H-pyrazol-1-yl)benzyl)-6-oxo-6,8-dihydro-2H,7H-spiro[furo[2,3-e]isoindole-3,4′-piperidin]-7-yl)piperidine-2,6-dione] | < 50 nM | 60 to 80%
2 | O=C1CCC(N2Cc3c(ccc4c3OCC43CCN(Cc4cccc(-n5ccnc5)c4)CC3)C2=O)C(=O)N1 (stereo not shown) [Compound A108, 3-(1′-(3-(1H-imidazol-1-yl)benzyl)-6-oxo-6,8-dihydro-2H,7H-spiro[furo[2,3-e]isoindole-3,4′-piperidin]-7-yl)piperidine-2,6-dione] | > 500 nM | 40 to 60%
3 | Cn1ccc2c(CN3CCC4(CC3)COc3c4ccc4c3CN(C3CCC(=O)NC3=O)C4=O)cccc21 (stereo not shown) [Compound A109, 3-(1′-((1-methyl-1H-indol-4-yl)methyl)-6-oxo-6,8-dihydro-2H,7H-spiro[furo[2,3-e]isoindole-3,4′-piperidin]-7-yl)piperidine-2,6-dione] | < 50 nM | 60 to 80%
4 | O=C1CCC(N2Cc3c(ccc4c3OCC43CCN(Cc4cc(F)cc5cc[nH]c45)CC3)C2=O)C(=O)N1 (stereo not shown) [Compound A110, 3-(1′-((5-fluoro-1H-indol-7-yl)methyl)-6-oxo-6,8-dihydro-2H,7H-spiro[furo[2,3-e]isoindole-3,4′-piperidin]-7-yl)piperidine-2,6-dione] | < 50 nM | > 80%
5 | Cc1[nH]c2c(CN3CCC4(CC3)COc3c4ccc4c3CN(C3CCC(=O)NC3=O)C4=O)cccc2c1C (stereo not shown) [Compound A111, 3-(1′-((2,3-dimethyl-1H-indol-7-yl)methyl)-6-oxo-6,8-dihydro-2H,7H-spiro[furo[2,3-e]isoindole-3,4′-piperidin]-7-yl)piperidine-2,6-dione] | 50 to 200 nM | 60 to 80%
6 | COCc1cccc(CN2CCC3(CC2)COc2c3ccc3c2CN(C2CCC(=O)NC2=O)C3=O)c1 (stereo not shown) [Compound A112, 3-(1′-(3-(methoxymethyl)benzyl)-6-oxo-6,8-dihydro-2H,7H-spiro[furo[2,3-e]isoindole-3,4′-piperidin]-7-yl)piperidine-2,6-dione] | 200 to 500 nM | 60 to 80%
7 | O=C1CCC(N2Cc3c(ccc4c3OCC43CCN(Cc4cccc5c4COC5)CC3)C2=O)C(=O)N1 (stereo not shown) [Compound A113, 3-(1′-((1,3-dihydroisobenzofuran-4-yl)methyl)-6-oxo-6,8-dihydro-2H,7H-spiro[furo[2,3-e]isoindole-3,4′-piperidin]-7-yl)piperidine-2,6-dione] | < 50 nM | 60 to 80%
8 | O=C1CCC(N2Cc3c(ccc4c3OCC43CCN(Cc4cc(C(F)(F)F)cc5[nH]ccc45)CC3)C2=O)C(=O)N1 (stereo not shown) [Compound A114, 3-(6-oxo-1′-((6-(trifluoromethyl)-1H-indol-4-yl)methyl)-6,8-dihydro-2H,7H-spiro[furo[2,3-e]isoindole-3,4′-piperidin]-7-yl)piperidine-2,6-dione] | 50 to 200 nM | 60 to 80%
9 | O=C1CCC(N2Cc3c(ccc4c3OCC43CCN(Cc4cccc5ccoc45)CC3)C2=O)C(=O)N1 (stereo not shown) [Compound A115, 3-(1′-(benzofuran-7-ylmethyl)-6-oxo-6,8-dihydro-2H,7H-spiro[furo[2,3-e]isoindole-3,4′-piperidin]-7-yl)piperidine-2,6-dione] | 50 to 200 nM | 60 to 80%
10 | O=C1CCC(N2Cc3c(ccc4c3OCC43CCN(Cc4cc(F)cc5ccoc45)CC3)C2=O)C(=O)N1 (stereo not shown) [Compound A117, 3-(1′-((5-fluorobenzofuran-7-yl)methyl)-6-oxo-6,8-dihydro-2H,7H-spiro[furo[2,3-e]isoindole-3,4′-piperidin]-7-yl)piperidine-2,6-dione] | 200 to 500 nM | 40 to 60%
11 | O=C1CCC(N2Cc3c(ccc4c3OCC43CCN(Cc4ccc(F)c5ccoc45)CC3)C2=O)C(=O)N1 (stereo not shown) [Compound A118, 3-(1′-((4-fluorobenzofuran-7-yl)methyl)-6-oxo-6,8-dihydro-2H,7H-spiro[furo[2,3-e]isoindole-3,4′-piperidin]-7-yl)piperidine-2,6-dione] | > 500 nM | 40 to 60%
12 | O=C1CCC(N2Cc3c(ccc4c3OCC43CCN(Cc4cccc5occc45)CC3)C2=O)C(=O)N1 (stereo not shown) [Compound A119, 3-(1′-(benzofuran-4-ylmethyl)-6-oxo-6,8-dihydro-2H,7H-spiro[furo[2,3-e]isoindole-3,4′-piperidin]-7-yl)piperidine-2,6-dione] | < 50 nM | 60 to 80%
13 | O=C1CCC(N2Cc3c(ccc4c3OCC43CCN(Cc4ccc5occc5c4)CC3)C2=O)C(=O)N1 (stereo not shown) [Compound A120, 3-(1′-(benzofuran-5-ylmethyl)-6-oxo-6,8-dihydro-2H,7H-spiro[furo[2,3-e]isoindole-3,4′-piperidin]-7-yl)piperidine-2,6-dione] | < 50 nM | 60 to 80%
14 | Cc1cc2c(CN3CCC4(CC3)COc3c4ccc4c3CN(C3CCC(=O)NC3=O)C4=O)cccc2[nH]1 (stereo not shown) [Compound A121, 3-(1′-((2-methyl-1H-indol-4-yl)methyl)-6-oxo-6,8-dihydro-2H,7H-spiro[furo[2,3-e]isoindole-3,4′-piperidin]-7-yl)piperidine-2,6-dione] | < 50 nM | 60 to 80%
15 | O=C1CCC(N2Cc3c(ccc4c3OCC43CCN(CC4CCN(c5ccccc5)CC4)CC3)C2=O)C(=O)N1 (stereo not shown) [Compound A123, 3-(6-oxo-1′-((1-phenylpiperidin-4-yl)methyl)-6,8-dihydro-2H,7H-spiro[furo[2,3-e]isoindole-3,4′-piperidin]-7-yl)piperidine-2,6-dione] | > 500 nM | 40 to 60%
16 | O=C1CCC(N2Cc3c(ccc4c3OCC43CCN(Cc4cccc(OCc5ccccn5)c4)CC3)C2=O)C(=O)N1 (stereo not shown) [Compound A135, 3-(6-oxo-1′-(3-(pyridin-2-ylmethoxy)benzyl)-6,8-dihydro-2H,7H-spiro[furo[2,3-e]isoindole-3,4′-piperidin]-7-yl)piperidine-2,6-dione] | < 50 nM | 60 to 80%
17 | O=C1CCC(N2Cc3c(ccc4c3OCC43CCN(Cc4ccc(F)c5[nH]ncc45)CC3)C2=O)C(=O)N1 (stereo not shown) [Compound A136, 3-(1′-((7-fluoro-1H-indazol-4-yl)methyl)-6-oxo-6,8-dihydro-2H,7H-spiro[furo[2,3-e]isoindole-3,4′-piperidin]-7-yl)piperidine-2,6-dione] | < 50 nM | 40 to 60%
18 | O=C1CCC(N2Cc3c(ccc4c3OCC43CCN(Cc4c(F)ccc5[nH]ccc45)CC3)C2=O)C(=O)N1 (stereo not shown) [Compound A137, 3-(1′-((5-fluoro-1H-indol-4-yl)methyl)-6-oxo-6,8-dihydro-2H,7H-spiro[furo[2,3-e]isoindole-3,4′-piperidin]-7-yl)piperidine-2,6-dione] | < 50 nM | 60 to 80%
19 | O=C1CCC(N2Cc3c(ccc4c3OCC43CCN(CC4CCN(c5ccccc5)C4)CC3)C2=O)C(=O)N1 (stereo not shown) [Compound A138, 3-(6-oxo-1′-((1-phenylpyrrolidin-3-yl)methyl)-6,8-dihydro-2H,7H-spiro[furo[2,3-e]isoindole-3,4′-piperidin]-7-yl)piperidine-2,6-dione] | > 500 nM | 40 to 60%
20 | O=C1CCC(N2Cc3c(ccc4c3OCC43CCN(Cc4cccc(Cn5ccnc5)c4)CC3)C2=O)C(=O)N1 (stereo not shown) [Compound A139, 3-(1′-(3-((1H-imidazol-1-yl)methyl)benzyl)-6-oxo-6,8-dihydro-2H,7H-spiro[furo[2,3-e]isoindole-3,4′-piperidin]-7-yl)piperidine-2,6-dione] | 200 to 500 nM | 60 to 80%
21 | Cn1ncc2cc(F)c(CN3CCC4(CC3)COc3c4ccc4c3CN(C3CCC(=O)NC3=O)C4=O)cc21 (stereo not shown) [Compound A140, 3-(1′-((5-fluoro-1-methyl-1H-indazol-6-yl)methyl)-6-oxo-6,8-dihydro-2H,7H-spiro[furo[2,3-e]isoindole-3,4′-piperidin]-7-yl)piperidine-2,6-dione] | > 500 nM | 40 to 60%
22 | O=C1CCC(N2Cc3c(ccc4c3OCC43CCN(Cc4cccc5[nH]cc(Cl)c45)CC3)C2=O)C(=O)N1 (stereo not shown) [Compound A141, 3-(1′-((3-chloro-1H-indol-4-yl)methyl)-6-oxo-6,8-dihydro-2H,7H-spiro[furo[2,3-e]isoindole-3,4′-piperidin]-7-yl)piperidine-2,6-dione] | < 50 nM | 60 to 80%
23 | O=C1CCC(N2Cc3c(ccc4c3OCC43CCN(Cc4ccc5c(Cl)n[nH]c5c4)CC3)C2=O)C(=O)N1 (stereo not shown) [Compound A142, 3-(1′-((3-chloro-1H-indazol-6-yl)methyl)-6-oxo-6,8-dihydro-2H,7H-spiro[furo[2,3-e]isoindole-3,4′-piperidin]-7-yl)piperidine-2,6-dione] | 50 to 200 nM | 60 to 80%
24 | Cc1ccc2[nH]ncc2c1CN1CCC2(CC1)COc1c2ccc2c1CN(C1CCC(=O)NC1=O)C2=O (stereo not shown) [Compound A143, 3-(1′-((5-methyl-1H-indazol-4-yl)methyl)-6-oxo-6,8-dihydro-2H,7H-spiro[furo[2,3-e]isoindole-3,4′-piperidin]-7-yl)piperidine-2,6-dione] | < 50 nM | 60 to 80%
25 | Cn1nccc1-c1cccc(CN2CCC3(CC2)COc2c3ccc3c2CN(C2CCC(=O)NC2=O)C3=O)c1 (stereo not shown) [Compound A144, 3-(1′-(3-(1-methyl-1H-pyrazol-5-yl)benzyl)-6-oxo-6,8-dihydro-2H,7H-spiro[furo[2,3-e]isoindole-3,4′-piperidin]-7-yl)piperidine-2,6-dione] | 200 to 500 nM | 40 to 60%
26 | CC(C)n1cc(-c2cccc(CN3CCC4(CC3)COc3c4ccc4c3CN(C3CCC(=O)NC3=O)C4=O)c2)cn1 (stereo not shown) [Compound A146, 3-(1′-(3-(1-isopropyl-1H-pyrazol-4-yl)benzyl)-6-oxo-6,8-dihydro-2H,7H-spiro[furo[2,3-e]isoindole-3,4′-piperidin]-7-yl)piperidine-2,6-dione] | < 50 nM | 60 to 80%
